Test results: article PMC5738391, “Three classes of ligands each bind to distinct sites on the orphan G protein-coupled receptor GPR84” (Scientific Reports, 2017)

How the values were obtained:
[1] = target: T1, human GPR84 (FLAG-hGPR84-eYFP) (Homo sapiens, UniProt Q9NQS5); test: [35S]GTPγS binding, membranes of cells expressing FLAG-hGPR84-eYFP; format: biochemical
T1 construct: expressed in transfected cells
Protocol: (§1) Membranes were generated from Flp-In T-REx HEK293 cells treated with 100 ng/mL doxycycline to induce expression of the receptor construct of interest. Cells were washed with ice-cold phosphate-buffered saline, removed from dishes by scraping and centrifuged at 3000 rpm for 5 min at 4 °C. Pellets were resuspended in TE buffer (10 mM Tris-HCl, 0.1 mM EDTA; pH 7.5) containing a protease inhibitor mixture (Roche Applied Science, West Sussex, UK) and homogenized with a 5 ml hand-held homogenizer. This material was centrifuged at 1500 rpm for 5 min at 4 °C and the supernatant was further centrifuged at 50000 rpm for 45 min at 4 °C. The resulting pellet was resuspended in TE buffer and protein content was assessed using a BCA protein assay kit (Pierce, Fisher Scientific, Loughborough, UK).
(§2) The reaction was then initiated with addition of [^35S]GTPγS (50 nCi per tube), and the reaction was terminated after 45 minutes incubation at 30 °C by rapid filtration through GF/C glass filters using a 24-well Brandel cell harvester (Alpha Biotech, Glasgow, UK). […] Dried filters were added to 3 mL of Ultima Gold^TM XR (PerkinElmer Life Sciences, Beaconsfield, UK) and [^35S]GTPγS binding was determined by liquid scintillation spectrometry.
All data are presented as means ± SEM of at least three independent experiments. Data analysis and curve fitting was carried out using the GraphPad Prism software package version 5.0b (GraphPad, San Diego). […] In case of inhibition experiments with antagonists an equivalent analysis was followed to fit an inverse sigmoidal curve. To perform the statistical analysis of curve parameters, data from multiple experiments were fitted independently and resulting curve fit values were analysed with indicated tests. For radioligand binding data, saturation binding curves were generated by fitting the specific binding, which was obtained by subtracting non-specific from total binding, to a one site specific binding model that allows calculation of Kd values for the radioligand at wild type and mutant receptors. To determine affinity of unlabelled ligands, data obtained in displacement assays were fit to an inverse three parameter sigmoidal curve constrained by radioligand affinity and concentration to allow for Ki calculation.

[2] = test system: GPR84-Gαi2 fusion protein; test: [35S]GTPγS binding, membranes expressing GPR84-Gαi2 fusion protein; format: biochemical, human; conditions: for direct agonism of GPR84, [35S]GTPγS binding: DIM analogs; for allosteric effect on concentration-response curves of orthosteric agonists incl. compound-1: increasing concentrations of analog
Source text: The only previous study[3] designed to explore the mode of binding of ligands to GPR84 employed a fusion protein[31],[32] in which the G protein Gαi1 was linked in-frame to the C-terminal tail of GPR84. […] These studies indicate that following pertussis toxin treatment of cells expressing the GPR84-Cys^352Ile Gαi2 fusion protein all agonist-induced binding of [^35S]GTPγS reflects incorporation of nucleotide into the receptor-linked G protein α subunit.
as §1
(§3) Initially, 5 μg of generated membrane protein was pre-incubated for 15 min at 25 °C in assay buffer (20 mM HEPES, 5 mM MgCl2; 160 mM NaCl; 1 μM GDP; 0.05% fatty acid-free bovine serum albumin; pH 7.5) containing the indicated ligand concentrations. […] The reaction was then initiated with addition of [^35S]GTPγS (50 nCi per tube), and the reaction was terminated after 45 minutes incubation at 30 °C by rapid filtration through GF/C glass filters using a 24-well Brandel cell harvester (Alpha Biotech, Glasgow, UK). Unbound radioligand was removed from filters by three washes with ice-cold phosphate buffered saline (pH 7.4) and filters were dried for 2–3 h at room temperature. Dried filters were added to 3 mL of Ultima Gold^TM XR (PerkinElmer Life Sciences, Beaconsfield, UK) and [^35S]GTPγS binding was determined by liquid scintillation spectrometry.

[3] = target: GPR84-Cys^352Ile Gαi2 fusion protein (Homo sapiens, UniProt Q9NQS5); test: [35S]GTPγS binding, membranes expressing pertussis toxin-resistant GPR84-Cys352Ile Gαi2 fusion; operational model of allosteric modulation; format: biochemical; conditions: for measured potency compared between GPR84-Gαi2 and GPR84-Cys352Ile Gαi2 fusion constructs: [35S]GTPγS binding
Protocol: The only previous study[3] designed to explore the mode of binding of ligands to GPR84 employed a fusion protein[31],[32] in which the G protein Gαi1 was linked in-frame to the C-terminal tail of GPR84.
as §1, §2
To quantify the extent of allosteric interaction between pairs of ligands, data were analysed using an operational model of allosteric modulation described previously. The general version of this model can be depicted by the following equation: E=Em(τA[A](KB+αβ[B])+τB[B]KA)^n/([A]KB+KAKB+[B]KA+α[A][B])^n+(τA[A](KB+αβ[B])+τB[B]KA)^n where, E is the pharmacological effect, [A] and [B] are the orthosteric and allosteric compound concentrations at equilibrium, respectively; KA and KB are the equilibrium dissociation constants of the orthosteric and allosteric ligands respectively, denoting the binding affinities of the two ligands to the receptor; α is the binding cooperativity factor denoting the magnitude and direction of the allosteric effect on binding affinity of the orthosteric agonist to the receptor, β is the activation cooperativity factor representing the measure of the allosteric effect on orthosteric efficacy. τA and τB represent the intrinsic activity of the orthosteric and allosteric ligand, respectively. Em is the maximal possible system response and n denotes the slope factor of the transducer function. In case of global fitting of the allosterism data through this equation, Em and n values were always constrained and other parameters (KA, KB,τA, τB, α, β) were estimated.

[4] = target: T2, Arg^172Ala GPR84-Cys^352Ile Gαi2 fusion protein (Homo sapiens, UniProt Q9NQS5, R172A); test: [35S]GTPγS binding, Arg172Ala mutant fusion protein; format: biochemical
T2 construct: Cys352Ile Gαi2 (fusion partner, same polypeptide); expressed in transfected cells; host or cells: membranes of Flp-In T-REx 293 cells, doxycycline-induced
Source text: To try to identify how a MCFA might interact with GPR84 we turned to homology modelling studies. Although GPR84 is not closely related to the other GPCRs that respond to either short chain (FFA2, FFA3) or long chain (FFA1, FFA4) fatty acids[8],[9], in each of the other cases the carboxylate of the fatty acid is co-ordinated by one or more arginine residues located at or near the extracellular surface[12]–[14]. […] As we have highlighted recently[9] GPR84 and the β2-adrenoceptor are only distantly related whilst, of the currently available atomic level GPCR structures, the orexin OX1 receptor[34] has highest overall sequence identity (31%) with GPR84. We, therefore, generated and employed a new homology model of GPR84 based on the transmembrane domain architecture of the OX1 receptor (Fig. 6). However, because ECL2 of GPR84 is very similar in sequence to that of rhodopsin (Fig. 6a), with 43% residue identity over this region, we incorporated this knowledge into the modelling process. In the resulting hybrid model (Fig. 6a) Arg^172 within ECL2 is pointing into the potential binding cavity within the helical bundle. This was not the case when Nikaido et al.,[3] employed the β2-adrenoceptor-based model, probably because the ECL2 sequences of the β2-adrenoceptor and GPR84 have no relatedness. […] To assess this we mutated Arg^172 to Ala within the setting of the GPR84-Cys^352Ile Gαi2 fusion protein. […] Equivalent results were obtained in studies in which the Arg^172Ala mutation was introduced into the FLAG-hGPR84-eYFP construct (Fig. 7b).
FLAG-humanGPR84-Gαi2 fusion proteins were constructed by replacing eYFP within the FLAG-humanGPR84-eYFP-pcDNA5/FRT/TO construct with sequence corresponding to Gαi2 or Cys^352Ile Gαi2 using NotI and XhoI restriction enzymes. Site-directed mutagenesis to generate point mutants of GPR84 was performed according to the QuikChange method (Stratagene, Cheshire, UK). The identity of all constructs was verified by nucleotide sequencing.
as §3

[5] = target: T3, FLAG-Arg^174Ala hGPR84-eYFP (Homo sapiens, UniProt Q9NQS5, R174A); test: [35S]GTPγS binding, Arg174Ala mutant receptor; format: biochemical
T3 construct: expressed in transfected cells; host or cells: membranes of Flp-In T-REx 293 cells, doxycycline-induced

[6] = target: T4, Arg^172Lys GPR84-Cys^352Ile Gαi2 fusion protein (Homo sapiens, UniProt Q9NQS5, R172K); test: [35S]GTPγS binding, Arg172Lys mutant fusion protein; format: biochemical
T4 construct: Cys352Ile Gαi2 (fusion partner, same polypeptide); expressed in transfected cells; host or cells: membranes of Flp-In T-REx 293 cells, doxycycline-induced

[7] = agonist 3a, modulator compound-1
[8] = agonist compound-1, modulator 3a

T1 sequence (Q9NQS5 whole entry): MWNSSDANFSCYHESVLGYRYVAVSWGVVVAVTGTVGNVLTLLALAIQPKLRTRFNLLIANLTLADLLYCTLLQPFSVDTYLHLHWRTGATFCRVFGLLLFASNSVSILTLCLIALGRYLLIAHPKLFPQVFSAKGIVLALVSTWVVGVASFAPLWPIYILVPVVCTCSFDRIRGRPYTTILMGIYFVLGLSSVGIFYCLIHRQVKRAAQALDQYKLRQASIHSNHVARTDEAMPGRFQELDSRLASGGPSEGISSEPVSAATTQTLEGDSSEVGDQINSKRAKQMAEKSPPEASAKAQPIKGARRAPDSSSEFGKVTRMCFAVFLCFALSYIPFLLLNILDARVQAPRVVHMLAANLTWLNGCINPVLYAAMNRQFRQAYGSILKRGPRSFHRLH
GPR84-Cys^352Ile Gαi2 fusion protein, sequence (Q9NQS5 whole entry, the tested form may be a part): as the sequence (Q9NQS5 whole entry) above
GPR84-Cys^352Ile Gαi2 fusion protein, sequence (P04899 2-355 C352I, further chain): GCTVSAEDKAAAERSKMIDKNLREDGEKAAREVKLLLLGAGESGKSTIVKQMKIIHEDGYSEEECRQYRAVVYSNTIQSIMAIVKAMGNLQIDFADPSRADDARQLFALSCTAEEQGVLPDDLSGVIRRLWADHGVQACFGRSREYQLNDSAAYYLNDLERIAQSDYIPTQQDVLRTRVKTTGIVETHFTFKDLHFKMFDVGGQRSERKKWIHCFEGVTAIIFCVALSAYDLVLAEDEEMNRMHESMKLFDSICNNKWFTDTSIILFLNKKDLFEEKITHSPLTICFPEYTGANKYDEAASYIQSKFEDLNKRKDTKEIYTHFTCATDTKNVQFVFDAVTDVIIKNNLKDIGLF
T2 sequence (Q9NQS5 2-396 R172A): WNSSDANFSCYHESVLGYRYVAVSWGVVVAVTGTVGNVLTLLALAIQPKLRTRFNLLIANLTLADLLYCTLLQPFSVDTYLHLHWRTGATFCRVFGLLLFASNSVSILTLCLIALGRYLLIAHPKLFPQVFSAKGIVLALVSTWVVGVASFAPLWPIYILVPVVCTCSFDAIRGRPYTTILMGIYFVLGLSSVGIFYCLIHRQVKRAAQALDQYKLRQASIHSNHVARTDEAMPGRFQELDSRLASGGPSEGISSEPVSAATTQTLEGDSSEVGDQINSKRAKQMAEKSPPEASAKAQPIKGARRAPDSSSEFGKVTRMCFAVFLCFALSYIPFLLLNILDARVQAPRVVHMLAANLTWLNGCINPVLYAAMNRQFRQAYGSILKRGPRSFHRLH
T4 sequence (Q9NQS5 2-396 R172K): as the sequence (Q9NQS5 2-396 R172A) above, with A171K counted along it
T3 sequence (Q9NQS5 whole entry R174A): as the sequence (Q9NQS5 whole entry) above, with R174A counted along it

2-((S)-1-[1,4]dioxan-2-ylmethoxy)-9-(tetrahydro-pyran-4-yl-methoxymethyl)-6,7-dihydro-pyrimido[6,1-a]isoquinolin-4-one [Compound 161]
ability to limit [35S]GTPγS binding induced by EC80 concentrations of C10 (50 μM), embelin (3 μM) and DIM (5 μM) [1]: in a concentration-dependent fashion

COc1ccc2[nH]cc(Cc3c[nH]c4ccc(OC)cc34)c2c1 [3a]
direct agonism of GPR84, [35S]GTPγS binding [2]: direct agonism | allosteric effect on concentration-response curves of orthosteric agonists incl. compound-1 [2]: as large positive allosteric effects on the potency of the orthosteric agonist ligands as did DIM | logα [3, 7]: 1.43 ± 0.08 | logβ [3, 7]: 1.2 ± 0.06 | Kd ([3]; pKA (estimated for the agonist), agonist 3a, modulator compound-1): 14.8 µM | Kb ([3]; pKB (estimated for the modulator), modulator 3a, agonist compound-1): 10 µM

COc1ccc2[nH]cc(C(c3ccc(C)cc3)c3c[nH]c4ccc(OC)cc34)c2c1 [3b]
direct agonism of GPR84, [35S]GTPγS binding [2]: inactive

COc1ccc2[nH]cc(C(c3cc(F)cc(F)c3)c3c[nH]c4ccc(OC)cc34)c2c1 [3c]
affinity for GPR84 (words, inferred from functional data) [2]: lack affinity | direct agonism of GPR84, [35S]GTPγS binding [2]: inactive | allosteric effect on concentration-response curves of orthosteric agonists incl. compound-1 [2]: unable to effect the position of the concentration-response curves

O=[N+]([O-])c1ccc2[nH]cc(Cc3c[nH]c4ccc([N+](=O)[O-])cc34)c2c1 [6a]
direct agonism of GPR84, [35S]GTPγS binding [2]: direct agonism

O=c1nc(OCC2COCCO2)cc2n1CCc1cc(C#CCNc3ccccc3)ccc1-2 (stereo not shown) [Compound 107, 2-([1,4]dioxan-2-ylmethoxy)-9-(3-phenylamino-prop-1-ynyl)-6,7-dihydro-pyrimido[6,1-a]isoquinolin-4-one]
potency to block DIM-stimulated [35S]GTPγS binding, Arg172Ala versus GPR84-Cys352Ile Gαi2 fusion [4]: equal potency | ability to limit [35S]GTPγS binding induced by EC80 concentrations of C10 (50 μM), embelin (3 μM) and DIM (5 μM) [1]: more potent than 161 | mode of blockade of DIM agonism ([1]; higher antagonist concentrations reduced maximal effect of DIM): non-competitive mode of blockade | mode of blockade of embelin effects ([1]; increasing concentrations of antagonist decreased maximal effect of embelin): non-competitive manner

CCCCCCSc1nc(O)cc(O)n1 [compound-1, 2-(hexylthiol)pyridimine-4,6 diol]
agonist response at Arg172Ala mutant [4]: no response | effect of Arg174Ala mutation on agonist function or potency [5]: did not affect function or potency | measured potency compared between GPR84-Gαi2 and GPR84-Cys352Ile Gαi2 fusion constructs [3]: indistinguishable | logα [3, 8]: 1.75 ± 0.05 | logβ [3, 8]: -0.1 ± 0.02 | logβ ([3]; agonist compound-1, modulator DIM): -0.2 ± 0.05 | logα ([3]; agonist compound-1, modulator DIM, operational model of allosterism): 2.1 ± 0.07 | agonist response at Arg172Lys mutant [6]: eliminated response

CCCCCCCCCCCC1=C(O)C(=O)C=C(O)C1=O [embelin, 2,5-dihydroxy-3-undecyl-2,5-cyclohexadiene-1,4-dione]
agonist response at Arg172Ala mutant [4]: no response | effect of Arg174Ala mutation on agonist function or potency [5]: did not affect function or potency | measured potency compared between GPR84-Gαi2 and GPR84-Cys352Ile Gαi2 fusion constructs [3]: indistinguishable | logα ([3]; agonist embelin, modulator DIM): 1.22 ± 0.05 | logβ ([3]; agonist embelin, modulator DIM): 0.8 ± 0.02 | agonist response at Arg172Lys mutant [6]: eliminated response

CCCCCCCCCC(=O)OC [methyl decanoate]
agonist activity, [35S]GTPγS binding ([1]; membranes of doxycycline-induced cells): completely inactive
